For 3 compounds, IC50 results are on record in patent US20250387369A1 (priority 2022, published 2025).

Holding throughout (format): cell-based
Experiment [1] concerns SARS-COV-2 (a prototype having D614G mutation).
For experiment [2] the test system is unchanged. The source holds these as a separate data set.
The subject of experiment [3] is SARS-COV-2 Omicron mutant BA.1 strain.
Experiment [4] concerns SARS-COV-2 Omicron mutant BA.2 strain.

Molecules are shown by their SMILES. pIC50: −log10 of the molar value. Read-outs that look alike come from different tables or passages of the source.

`CC(C)(C)OC(=O)NCCCCCCC(C)(C(=O)O)c1c[nH]c2ccccc12` (centres unmarked) [Compound #13] showed a pIC50 in experiment [1] of 5.96.
Turning to `COc1cc(COc2ccc3[nH]cc(CC(=O)O)c3c2)cc(OC)c1` [Compound #35], the negative logarithm of the IC50 (pIC50) in experiment [1] is 4.81.
As for `CC(C)C(=O)OC[C@H]1O[C@@H](n2ccc(NO)nc2=O)[C@H](O)[C@@H]1O` [Molnupiravir], the figures for the pIC50 in experiment [2], in experiment [3] and in experiment [4] were 5.38, 5.40 and 5.55, respectively.

In general, pIC50 refers to −log10 of the IC50, conventionally taken in molar units. A high value points to a low IC50.
